Measured values published in ChEMBL document CHEMBL4477208, “Discovery and Rational Design of Pteridin-7(8H)-one-Based Inhibitors Targeting FMS-like Tyrosine Kinase 3 (FLT3) and Its Mutants” (J Med Chem, 2016).
Calls of active or inactive are those of the source. The calls are words filed in the database; no cut-off is given here.

Tests used:
[1] = molecular target: T1, Receptor-type tyrosine-protein kinase FLT3 (Homo sapiens, UniProt P36888)
T1 sequence (P36888 whole entry): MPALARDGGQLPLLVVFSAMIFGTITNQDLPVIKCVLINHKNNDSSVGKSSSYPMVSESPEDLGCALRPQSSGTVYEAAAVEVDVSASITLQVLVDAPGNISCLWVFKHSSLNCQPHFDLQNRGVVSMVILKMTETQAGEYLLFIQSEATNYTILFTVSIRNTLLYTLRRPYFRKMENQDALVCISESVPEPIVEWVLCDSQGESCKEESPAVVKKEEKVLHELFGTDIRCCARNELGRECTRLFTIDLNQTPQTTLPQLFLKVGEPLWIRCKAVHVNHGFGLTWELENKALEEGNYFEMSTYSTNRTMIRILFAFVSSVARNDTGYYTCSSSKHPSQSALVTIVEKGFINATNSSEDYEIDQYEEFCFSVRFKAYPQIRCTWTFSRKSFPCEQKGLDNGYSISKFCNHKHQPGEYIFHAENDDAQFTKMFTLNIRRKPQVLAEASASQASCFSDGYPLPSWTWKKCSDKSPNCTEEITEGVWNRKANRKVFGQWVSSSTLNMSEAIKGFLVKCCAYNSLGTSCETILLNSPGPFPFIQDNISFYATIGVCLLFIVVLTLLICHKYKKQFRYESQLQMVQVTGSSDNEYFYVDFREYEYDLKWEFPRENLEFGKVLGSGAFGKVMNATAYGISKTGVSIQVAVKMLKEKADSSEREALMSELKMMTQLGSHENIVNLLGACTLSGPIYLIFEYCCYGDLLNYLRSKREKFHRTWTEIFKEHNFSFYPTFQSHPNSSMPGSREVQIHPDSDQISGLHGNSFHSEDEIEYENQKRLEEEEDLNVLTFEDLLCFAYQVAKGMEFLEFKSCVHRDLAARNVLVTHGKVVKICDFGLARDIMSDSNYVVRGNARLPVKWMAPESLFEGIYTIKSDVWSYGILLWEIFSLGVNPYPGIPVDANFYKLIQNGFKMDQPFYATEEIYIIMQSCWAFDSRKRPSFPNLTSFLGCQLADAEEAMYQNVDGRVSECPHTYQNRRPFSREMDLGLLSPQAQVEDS
Description: Inhibition of human N-terminal GST-tagged FLT3 (564 to 993 residues) expressed in baculovirus expression system using peptide FAM-P2 as substrate incubated for 10 mins followed by substrate addition by mobility shift assay

[2] = tested on: MV4-11; experiment: cells; conditions: Homo sapiens, MV4-11, 72 h
Description: Antiproliferative activity against human MV4-11 cells harboring FLT3-ITD mutant after 72 hrs by MTT assay

[3] = tested on: K562; experiment: cells; conditions: Homo sapiens, K562, 72 h
Description: Antiproliferative activity against FLT3-deficient human K562 cells after 72 hrs by MTT assay

[4] = tested on: WI-38; experiment: cells; conditions: Homo sapiens, WI-38, 72 h
Description: Antiproliferative activity against human WI38 cells after 72 hrs by SRB assay

[5] = molecular target: Receptor-type tyrosine-protein kinase FLT3 (Homo sapiens) (UniProt P36888); experiment: Inhibition of FLT3 (unknown origin) at 10 uM
[6] = molecular target: Receptor-type tyrosine-protein kinase FLT3 (Homo sapiens) (UniProt P36888); experiment: Inhibition of FLT3 (unknown origin) at 1 uM
[7] = tested on: MV4-11; experiment: Induction of apoptosis in human MV4-11 cells at 1000 nM after 48 hrs by annexin V/propidium iodide staining based FACS analysis; assay type: functional, cell-based
[8] = tested on: MV4-11; experiment: Cell cycle arrest in human MV4-11 cells at 1000 nM after 48 hrs by PI/RNase staining based FACS analysis; assay type: functional

| Structure (SMILES) | IC50 [1] | IC50 [2] | IC50 [3] | IC50 [4] | inhibition [5] | inhibition [6] | Activity [7] | Activity [8] |
| --- | --- | --- | --- | --- | --- | --- | --- | --- |
| C=CC(=O)Nc1cccc(-n2c(=O)cnc3cnc(Nc4ccc(N5CCCC5)cc4)nc32)c1 | 1.53 µM | > 10 µM | > 10 µM | > 10 µM |  |  |  |  |
| C=CC(=O)Nc1cccc(-n2c(=O)cnc3cnc(Nc4ccc(OC)cc4)nc32)c1 | 1.87 µM | 2.61 µM | > 10 µM | 8.71 µM |  |  |  |  |
| COc1cc(Nc2ncc3ncc(=O)n(-c4ccc(N)cc4)c3n2)ccc1N1CCN(C)CC1 |  | 0.093 µM | > 10 µM | > 10 µM |  |  |  |  |
| C=CC(=O)Nc1cccc(-n2c(=O)cnc3cnc(Nc4ccc(N5CCN(C)CC5)cc4)nc32)c1 | 0.312 µM | 0.792 µM | > 10 µM | > 10 µM | 99% | 82% |  |  |
| COc1ccc(Nc2ncc3ncc(=O)n(-c4ccc(N)cc4)c3n2)cc1 | 0.029 µM | 6.89 µM | > 10 µM | > 10 µM |  |  |  |  |
| CN1CCN(c2ccc(Nc3ncc4ncc(=O)n(-c5ccc(NS(C)(=O)=O)cc5)c4n3)cc2)CC1 |  | 1.15 µM | > 10 µM | > 10 µM |  |  |  |  |
| C=CC(=O)Nc1cccc(-n2c(=O)cnc3cnc(Nc4ccc(N(CC)CC)cc4)nc32)c1 | 1.06 µM | 5.56 µM | > 10 µM | > 10 µM |  |  |  |  |
| C=CC(=O)Nc1ccc(-n2c(=O)cnc3cnc(Nc4ccccc4)nc32)cc1 | 0.165 µM | > 10 µM | > 10 µM | > 10 µM |  |  |  |  |
| C=CC(=O)Nc1cccc(-n2c(=O)cnc3cnc(Nc4ccc(N5CCOCC5)cc4)nc32)c1 | 1.14 µM | > 10 µM | > 10 µM | > 10 µM |  |  |  |  |
| COc1ccc(Nc2ncc3ncc(=O)n(-c4ccc(NC(C)=O)cc4)c3n2)cc1 |  | 3.88 µM | > 10 µM | > 10 µM |  |  |  |  |
| C=CC(=O)Nc1ccc(-n2c(=O)cnc3cnc(Nc4ccc(Cl)cc4)nc32)cc1 | 0.384 µM | > 10 µM | > 10 µM | > 10 µM |  |  |  |  |
| C=CC(=O)Nc1cccc(-n2c(=O)cnc3cnc(Nc4ccc(CC(N)=O)cc4)nc32)c1 |  | > 10 µM | > 10 µM | > 10 µM |  |  |  |  |
| C=CC(=O)Nc1ccc(-n2c(=O)cnc3cnc(Nc4ccc(N5CCN(C)CC5)cc4OC)nc32)cc1 | 0.153 µM | 0.814 µM | > 10 µM | > 10 µM |  |  |  |  |
| C=CC(=O)Nc1cccc(-n2c(=O)cnc3cnc(Nc4ccccc4)nc32)c1 | 2.92 µM | 5.51 µM | > 10 µM | > 10 µM |  |  |  |  |
| CN1CCN(c2ccc(Nc3ncc4ncc(=O)n(-c5ccc(CN)cc5)c4n3)cc2)CC1 |  | 0.326 µM | 9.96 µM | > 10 µM |  |  |  |  |
| C=CC(=O)Nc1ccc(-n2c(=O)cnc3cnc(Nc4ccc(OC)cc4)nc32)cc1 | 0.108 µM | 3.81 µM | > 10 µM | > 10 µM |  |  |  |  |
| COc1ccc(Nc2ncc3ncc(=O)n(-c4cccc(N)c4)c3n2)cc1 | 0.034 µM | 3.49 µM | > 10 µM | > 10 µM |  |  |  |  |
| CN1CCN(c2ccc(Nc3ncc4ncc(=O)n(-c5ccc(N)cc5)c4n3)cc2)CC1 |  | 0.297 µM | > 10 µM | > 10 µM |  |  | Active | Active |

| Structure (SMILES) | IC50 [1] | IC50 [2] | IC50 [3] | IC50 [4] | inhibition [5] | inhibition [6] | Activity [7] | Activity [8] |
| --- | --- | --- | --- | --- | --- | --- | --- | --- |
| C=CC(=O)Nc1cccc(-n2c(=O)cnc3cnc(Nc4ccc(N5CCCCC5)cc4)nc32)c1 | 1.75 µM | > 10 µM | > 10 µM | > 10 µM |  |  |  |  |
| C=CC(=O)Nc1cccc(-n2c(=O)cnc3cnc(Nc4ccc(N5CCN(C)CC5)cc4OC)nc32)c1 | 1.32 µM | 2.89 µM | > 10 µM | 8.24 µM |  |  |  |  |
| COc1ccc(Nc2ncc3ncc(=O)n(-c4ccc(N)cc4)c3n2)c(C)c1 |  | 6.04 µM | > 10 µM | > 10 µM |  |  |  |  |
| CN1CCN(c2ccc(Nc3ncc4ncc(=O)n(-c5ccc(N6CCNCC6)cc5)c4n3)cc2)CC1 |  | 0.168 µM | > 10 µM | > 10 µM |  |  |  |  |
| COc1ccc(Nc2ncc3ncc(=O)n(-c4cccc(NC(=O)/C=C/CN(C)C)c4)c3n2)cc1 |  | 2.72 µM | > 10 µM | > 10 µM |  |  |  |  |
| COc1cc2c(N3CCN(C(=O)Nc4ccc(OC(C)C)cc4)CC3)ncnc2cc1OCCCN1CCCCC1 [TANDUTINIB] |  | 0.302 µM | > 10 µM | > 10 µM |  |  |  |  |
| C=CC(=O)Nc1ccc(-n2c(=O)cnc3cnc(Nc4ccc(N5CCOCC5)cc4)nc32)cc1 | 0.173 µM | 3.49 µM | > 10 µM | > 10 µM |  |  |  |  |
| C=CC(=O)Nc1cccc(-n2c(=O)cnc3cnc(Nc4ccc(Cl)cc4)nc32)c1 | 3.59 µM | 4.04 µM | > 10 µM | > 10 µM |  |  |  |  |
| C=CC(=O)Nc1cccc(-n2c(=O)cnc3cnc(Nc4ccc(NC(C)=O)cc4)nc32)c1 | 5.45 µM | 7.38 µM | > 10 µM | > 10 µM |  |  |  |  |
| COc1ccc(Nc2ncc3ncc(=O)n(-c4ccc(N)cc4)c3n2)cc1Cl |  | 1.95 µM | > 10 µM | > 10 µM |  |  |  |  |
| CN1CCN(c2ccc(Nc3ncc4ncc(=O)n(-c5cccc(N)c5)c4n3)cc2)CC1 |  | 0.383 µM | > 10 µM | > 10 µM |  |  |  |  |
| C=CC(=O)Nc1ccc(-n2c(=O)cnc3cnc(Nc4ccc(N5CCN(C)CC5)cc4)nc32)cc1 | 0.047 µM | 0.835 µM | > 10 µM | > 10 µM |  |  |  |  |
| COc1ccc(Nc2ncc3ncc(=O)n(-c4ccc(NC(=O)/C=C/CN(C)C)cc4)c3n2)cc1 | 0.184 µM | 2.17 µM | > 10 µM | > 10 µM |  |  |  |  |
| CN1CCN(c2ccc(Nc3ncc4ncc(=O)n(-c5ccc(N)cc5)c4n3)cc2F)CC1 |  | 1.42 µM | > 10 µM | > 10 µM |  |  |  |  |
| CN1CCN(c2ccc(Nc3ncc4ncc(=O)n(-c5ccc(N)cc5)c4n3)cc2Cl)CC1 |  | 0.098 µM | > 10 µM | 3.49 µM |  |  |  |  |
| CC(=O)Nc1ccc(-n2c(=O)cnc3cnc(Nc4ccc(N5CCN(C)CC5)cc4)nc32)cc1 |  | 0.415 µM | > 10 µM | > 10 µM |  |  |  |  |
| COc1ccc(Nc2ncc3ncc(=O)n(-c4ccc(NS(C)(=O)=O)cc4)c3n2)cc1 |  | 2.94 µM | > 10 µM | > 10 µM |  |  |  |  |
